Active and inactive are the calls of the source. How the calls were made is not given here.
Legend:
[1] = Selectivity index, CC50 for MDBK cells/EC50 for BVDV NADL; format: functional
[2] = test system: Bovine viral diarrhea virus 1; assay: Antiviral activity against BVDV NADL in MDBK cells; format: functional, organism-based; conditions: Bovine viral diarrhea virus isolates and strains
[3] = Cytotoxicity against MDBK cells; format: cell-based, Bos taurus; conditions: cattle
[4] = test system: Hepatitis C virus; assay: Antiviral activity against HCV 1a; format: functional, organism-based; conditions: Hepacivirus hominis; subtype 1a

Clc1ccc(Cn2ccc3nc(-c4ccccc4)nc-3c2)cc1
Ratio CC50/EC50 [1]: >1250 | EC50 [2]: 80 nM | CC50 [3]: > 100 µM | Activity [4]: inactive

Clc1cccc(Cn2ccc3nc(-c4ccccc4)nc-3c2)c1
Ratio CC50/EC50 [1]: >476 | EC50 [2]: 210 nM | CC50 [3]: > 100 µM | Activity [4]: inactive

Fc1cccc(F)c1Cn1c(-c2c(F)cccc2F)nc2ccncc21
Ratio CC50/EC50 [1]: <=2 | EC50 [2]: ≥ 48000 nM | CC50 [3]: 99 µM | Activity [4]: inactive

c1ccc(-c2nc3ccn(Cc4ccncc4)cc-3n2)cc1
Ratio CC50/EC50 [1]: >50 | EC50 [2]: 2000 nM | CC50 [3]: > 100 µM | Activity [4]: inactive

c1ccc(OCCn2ccc3nc(-c4ccccc4)nc-3c2)cc1
Ratio CC50/EC50 [1]: >370 | EC50 [2]: 270 nM | CC50 [3]: > 100 µM | Activity [4]: inactive

Fc1cccc(Cn2ccc3nc(-c4ccccc4)nc-3c2)c1
Ratio CC50/EC50 [1]: >667 | EC50 [2]: 150 nM | CC50 [3]: > 100 µM | Activity [4]: inactive

Clc1ccccc1Cn1ccc2nc(-c3ccccc3)nc-2c1
Ratio CC50/EC50 [1]: >526 | EC50 [2]: 190 nM | CC50 [3]: > 100 µM | Activity [4]: inactive

c1ccc(-c2nc3ccn(Cc4ccccn4)cc-3n2)cc1
Ratio CC50/EC50 [1]: >63 | EC50 [2]: 1600 nM | CC50 [3]: > 100 µM | Activity [4]: inactive

c1ccc(-c2ccc(Cn3ccc4nc(-c5ccccc5)nc-4c3)cc2)cc1
Ratio CC50/EC50 [1]: 225 | EC50 [2]: 80 nM | CC50 [3]: 18 µM | Activity [4]: inactive

c1ccc(CCCCn2ccc3nc(-c4ccccc4)nc-3c2)cc1
Ratio CC50/EC50 [1]: 45 | EC50 [2]: 2100 nM | CC50 [3]: 95 µM | Activity [4]: inactive

Brc1cccc(Cn2ccc3nc(-c4ccccc4)nc-3c2)c1
Ratio CC50/EC50 [1]: 304 | EC50 [2]: 280 nM | CC50 [3]: 85 µM | Activity [4]: inactive

COc1ccccc1Cn1ccc2nc(-c3ccccc3)nc-2c1
Ratio CC50/EC50 [1]: >370 | EC50 [2]: 270 nM | CC50 [3]: > 100 µM | Activity [4]: inactive

CC(C)=CCn1ccc2nc(-c3ccccc3)nc-2c1
Ratio CC50/EC50 [1]: >33 | EC50 [2]: 3000 nM | CC50 [3]: > 100 µM | Activity [4]: inactive

Fc1cccc(F)c1Cn1ccc2nc(-c3ccccc3)nc-2c1
Ratio CC50/EC50 [1]: >435 | EC50 [2]: 230 nM | CC50 [3]: > 100 µM | Activity [4]: inactive

N#Cc1ccccc1Cn1ccc2nc(-c3ccccc3)nc-2c1
Ratio CC50/EC50 [1]: >132 | EC50 [2]: 760 nM | CC50 [3]: > 100 µM | Activity [4]: inactive

c1ccc(-c2nc3ccn(Cc4ccc5ccccc5c4)cc-3n2)cc1
Ratio CC50/EC50 [1]: 13 | EC50 [2]: 5000 nM | CC50 [3]: 67 µM | Activity [4]: inactive

N#Cc1ccc(Cn2ccc3nc(-c4ccccc4)nc-3c2)cc1
Ratio CC50/EC50 [1]: >435 | EC50 [2]: 230 nM | CC50 [3]: > 100 µM | Activity [4]: inactive

FC(F)(F)Oc1ccc(Cn2ccc3nc(-c4ccccc4)nc-3c2)cc1
Ratio CC50/EC50 [1]: 244 | EC50 [2]: 270 nM | CC50 [3]: 66 µM | Activity [4]: inactive

c1ccc(-c2nc3ccn(Cc4cccnc4)cc-3n2)cc1
Ratio CC50/EC50 [1]: >59 | EC50 [2]: 1700 nM | CC50 [3]: > 100 µM | Activity [4]: inactive

CCC(CC)Cn1ccc2nc(-c3ccccc3)nc-2c1
Ratio CC50/EC50 [1]: >52 | EC50 [2]: 1900 nM | CC50 [3]: > 100 µM | Activity [4]: inactive

CCn1ccc2nc(-c3ccccc3)nc-2c1
Ratio CC50/EC50 [1]: >7 | EC50 [2]: 15000 nM | CC50 [3]: > 100 µM | Activity [4]: inactive

COc1ccc(Cn2ccc3nc(-c4ccccc4)nc-3c2)cc1
Ratio CC50/EC50 [1]: >714 | EC50 [2]: 140 nM | CC50 [3]: > 100 µM | Activity [4]: inactive

c1ccc(-c2nc3ccn(Cc4cccc5ccccc45)cc-3n2)cc1
Ratio CC50/EC50 [1]: 1017 | EC50 [2]: 60 nM | CC50 [3]: 61 µM | Activity [4]: inactive

C(=C\c1ccccc1)/Cn1ccc2nc(-c3ccccc3)nc-2c1
Ratio CC50/EC50 [1]: 459 | EC50 [2]: 170 nM | CC50 [3]: 78 µM | Activity [4]: inactive

Cc1ccccc1Cn1ccc2nc(-c3ccccc3)nc-2c1
Ratio CC50/EC50 [1]: >333 | EC50 [2]: 300 nM | CC50 [3]: > 100 µM | Activity [4]: inactive

COc1cccc(Cn2ccc3nc(-c4ccccc4)nc-3c2)c1
Ratio CC50/EC50 [1]: >200 | EC50 [2]: 500 nM | CC50 [3]: > 100 µM | Activity [4]: inactive

c1ccc(-c2nc3cc[nH]cc-3n2)cc1
Ratio CC50/EC50 [1]: >10 | EC50 [2]: 10000 nM | CC50 [3]: > 100 µM | Activity [4]: inactive

Reference: ChEMBL document CHEMBL1137252, “Substituted 5-benzyl-2-phenyl-5H-imidazo[4,5-c]pyridines: a new class of pestivirus inhibitors” (Bioorg Med Chem Lett, 2006)
